Measured values: US6169181A, “Compounds useful to treat retroviral infections” (Pharmacia & Upjohn Company, priority 1998, dated 2001)
Where “and” joins values, the source holds several entries; their conditions need not be identical. Equal entries are not always repeated. Where two headings read alike, the source gives them in different places.

Columns and labels:
HIV-1 protease = HIV-1 protease (Human immunodeficiency virus type 1 group M subtype B, UniProt P04585); test: biochemical
How it was run: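 Percent inhibition came from fluorescence of FITC-tagged cleavage product, separated by filtration from uncleaved substrate captured on streptavidin-coated beads. The enzyme (10 μl of 0.1 μM) and compound acted on a biotin/FITC dual-labelled peptide for one hour at room temperature in the dark. The reaction ran in 0.1 M sodium acetate, pH 5.5, with 1.0 M NaCl and 0.05% NP-40.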

[1] = biological target: T1, single chain tethered (tandem) HIV protease (HIV-1 M:B_HXB2R, UniProt P04585); test: Tandem HIV protease assay; format: biochemical; settings: read-out: FITC KI; Table II; enzyme HIV1TANDEM
T1 construct: purified enzyme, FITC/biotin substrate assay
Description: In the enzyme inhibition assay described above, the sensitivity of Ki value determination is in part limited by the ability to continue to lower the enzyme concentration for compounds with high binding affinity. To prevent de-dimerization at low enzyme concentration, a tandemly linked enzyme is prepared in which the two monomers are covalently linked by an appropriate stretch of amino acid residues. Using the latter enzyme, the sensitivity of the inhibition assay is improved since much lower enzyme concentration can be utilized, as compared to the condition using the wild-type enzyme.
The starting inhibitor concentrations are determined based on preliminary enzyme inhibition screening results which estimate the expected potency of the inhibitor. Inhibitor concentrations are then prepared using the Biomek 1000 (Beckman) and the Quadra 96 (Tomtec). Substrate (biotinylated at the amino terminal arginine and fluorescently labeled with fluorescein at the carboxyl terminal lysine), inhibitor and the tandem enzyme are allowed to react in solution at pH 5.5 (buffers identical to those used with the native dimeric enzyme) in the dark for 96 hours. Streptavidin coated polystyrene beads are added to stop the reaction. The labeled cleavage product is separated from unreacted substrate via filtration. Residual fluorescence is quantitated with the Idexx SM2000 (Idexx) and the resulting data are analyzed using the NLLSF program.

[2] = Table II, enzyme HIV-1, DOSE 0.123 (unit not given)
[3] = Table II, enzyme HIV-1, DOSE 0.370 (unit not given)
[4] = Table II, enzyme HIV-1, DOSE 1.100 (unit not given)
[5] = Table II, enzyme HIV-1, DOSE 3.300 (unit not given)
[6] = Table II, enzyme HIV-1, DOSE 10.000 (unit not given)
[7] = Table II, enzyme HIV-1, DOSE 30.000 (unit not given)

CCCC1(CCC)CC(O)=C(C(c2cccc(NS(=O)(=O)c3cn(C)cn3)c2)C(C)(C)C)C(=O)O1 (single isomer, unassigned) [Example 318, N-[3(R or S)-(1-[5,6-Dihydro-6,6-dipropyl-4-hydroxy-2-oxo-2H-pyran-3-yl]-2,2-dimethylpropyl)-phenyl]-1-methyl-1H-imidazole-4-sulfonamide]
PROTEASE % INHIB. (HIV-1 protease; [2]): 98.06% | PROTEASE % INHIB. (HIV-1 protease; [3]): 106.35% | PROTEASE % INHIB. (HIV-1 protease; [4]): 101.88% | PROTEASE % INHIB. (HIV-1 protease; [5]): 88.73% | PROTEASE % INHIB. (HIV-1 protease; [6]): 94.49% | PROTEASE % INHIB. (HIV-1 protease; [7]): 82.83% | Ki [1]: 0.019 nM

CCCC1(CCC)CC(O)=C(C(c2cccc(NS(=O)(=O)c3cn(C)cn3)c2)C(C)(C)C)C(=O)O1 (single isomer, unassigned) [Example 319, N-[3(R or S)-(1-[5,6-Dihydro-6,6-dipropyl-4-hydroxy-2-oxo-2H-pyran-3-yl]-2,2-dimethylpropyl)-phenyl]-1-methyl-1H-imidazole-4-sulfonamide]
PROTEASE % INHIB. (HIV-1 protease; [2]): 10.75% | PROTEASE % INHIB. (HIV-1 protease; [3]): 32.65% | PROTEASE % INHIB. (HIV-1 protease; [4]): 60.14% | PROTEASE % INHIB. (HIV-1 protease; [5]): 75.86% | PROTEASE % INHIB. (HIV-1 protease; [6]): 93.46% | PROTEASE % INHIB. (HIV-1 protease; [7]): 74.48% | Ki [1]: 29.5 nM

CCC[C@@]1(CCc2ccccc2)CC(O)=C([C@H](CC)c2cccc(NS(=O)(=O)c3ccc(N)cn3)c2)C(=O)O1 (single isomer, unassigned) [Example 315, 5-Amino-N-[3(R or S)-(1-[5,6-dihydro-4-hydroxy-2-oxo-6(R or S)-(2-phenylethyl)-6-propyl-2H-pyran-3-yl]propyl)phenyl]-2-pyridinesulfonamide]
PROTEASE % INHIB. (HIV-1 protease; [2]): 79.95% | PROTEASE % INHIB. (HIV-1 protease; [3]): 87.25% | PROTEASE % INHIB. (HIV-1 protease; [4]): 88.08% | PROTEASE % INHIB. (HIV-1 protease; [5]): 97.03% | PROTEASE % INHIB. (HIV-1 protease; [6]): 100.2% | PROTEASE % INHIB. (HIV-1 protease; [7]): 106.4% | Ki [1]: 0.029 nM

CCC[C@]1(CCc2ccccc2)CC(O)=C([C@@H](CC)c2cccc(NS(=O)(=O)c3cn(C)cn3)c2)C(=O)O1 (single isomer, unassigned) [Example 342, N-[3-{1(S or R)-(4-Hydroxy-5,6-dihydro-2-oxo-6(S or R)-phenethyl-6-propyl-2H-pyran-3-yl)propyl}phenyl]-1-methyl-1H-imidazole-4-sulfonamide]
PROTEASE % INHIB. (HIV-1 protease): 81.06 and 93.18 and 96.94 and 85.55 and 73.55 and 73.95 | Ki [1]: 0.309 nM

CCC[C@@]1(CCc2ccc(F)cc2)CC(O)=C([C@@H](c2cccc(NS(=O)(=O)c3ccc(N)cn3)c2)C(C)(C)C)C(=O)O1 (single isomer, unassigned) [Example 316, 5-Amino-N-[3(R or S)-(1-[6(R or S)-(2-[4-fluorophenyl]ethyl)-5,6-dihydro-4-hydroxy-2-oxo-6-propyl-2H-pyran-3-yl]-2,2-dimethyl-propyl)phenyl]-2-pyridine-sulfonamide]
PROTEASE % INHIB. (HIV-1 protease; [2]): 75.49% | PROTEASE % INHIB. (HIV-1 protease; [3]): 85.02% | PROTEASE % INHIB. (HIV-1 protease; [4]): 100.32% | PROTEASE % INHIB. (HIV-1 protease; [5]): 95.46% | PROTEASE % INHIB. (HIV-1 protease; [6]): 99.71% | PROTEASE % INHIB. (HIV-1 protease; [7]): 87.91% | Ki [1]: 0.357 nM

CCC[C@@]1(CCc2ccc(F)cc2)CC(O)=C([C@@H](c2cccc(NS(=O)(=O)c3ccc(C#N)cn3)c2)C(C)(C)C)C(=O)O1 (single isomer, unassigned) [Example 345, N-[3-{1(R or S)-(4-Hydroxy-5,6-dihydro-2-oxo-6(R or S)-(2-(4-fluorophenyl)ethyl)-6-propyl-2H-pyran-3-yl)-2,2-dimethyl-propyl}phenyl]-5-cyanopyridine-2-sulfonamide]
PROTEASE % INHIB. (HIV-1 protease; [2]): 69.19% | PROTEASE % INHIB. (HIV-1 protease; [3]): 94.37% | PROTEASE % INHIB. (HIV-1 protease; [4]): 101.67% | PROTEASE % INHIB. (HIV-1 protease; [5]): 99.08% | PROTEASE % INHIB. (HIV-1 protease; [6]): 97.43% | PROTEASE % INHIB. (HIV-1 protease; [7]): 84.56% | Ki [1]: 0.032 nM

CCC(C1=C(O)CC(CCc2ccccc2)(CCc2ccccc2)OC1=O)c1cccc(NS(=O)(=O)c2cn(C)cn2)c1 (centres unmarked) [Example 330, N-[3-{1-(4-Hydroxy-5,6-dihydro-2-oxo-6,6-bis(2-phenylethyl)-2H-pyran-3-yl)propyl}phenyl]-1-methyl-1H-imidazole-4-sulfonamide]
PROTEASE % INHIB. (HIV-1 protease; [2]): 93.74% | PROTEASE % INHIB. (HIV-1 protease; [3]): 94.32% | PROTEASE % INHIB. (HIV-1 protease; [4]): 93.66% | PROTEASE % INHIB. (HIV-1 protease; [5]): 85.63% | PROTEASE % INHIB. (HIV-1 protease; [6]): 87.9% | PROTEASE % INHIB. (HIV-1 protease; [7]): 69.82% | Ki [1]: 0.524 nM

CCC[C@@]1(CCc2ccc(F)cc2)CC(O)=C([C@@H](c2cccc(NS(=O)(=O)c3cn(C)cn3)c2)C(C)(C)C)C(=O)O1 (single isomer, unassigned) [Example 349, N-[3-{1(R or S)-(4-Hydroxy-5,6-dihydro-2-oxo-6(R or S)-(2-(4-fluorophenyl)ethyl)-6-propyl-2H-pyran-3-yl)-2,2-dimethyl-propyl}phenyl]-1-methyl-1H-imidazole-4-sulfonamide]
PROTEASE % INHIB. (HIV-1 protease; [2]): 74.5% | PROTEASE % INHIB. (HIV-1 protease; [3]): 88.21% | PROTEASE % INHIB. (HIV-1 protease; [4]): 99.92% | PROTEASE % INHIB. (HIV-1 protease; [5]): 104.99% | PROTEASE % INHIB. (HIV-1 protease; [6]): 103.49% | PROTEASE % INHIB. (HIV-1 protease; [7]): 98.24% | Ki [1]: 0.111 nM

CCC[C@]1(CCc2ccc(F)cc2)CC(O)=C([C@H](c2cccc(NS(=O)(=O)c3ccc(C#N)cn3)c2)C(C)(C)C)C(=O)O1 (single isomer, unassigned) [Example 348, N-[3-{1(S or R)-(4-Hydroxy-5,6-dihydro-2-oxo-6(S or R)-(2-(4-fluorophenyl)ethyl)-6-propyl-2H-pyran-3-yl)-2,2-dimethyl-propyl}phenyl]-5-cyanopyridine-2-sulfonamide]
PROTEASE % INHIB. (HIV-1 protease; [2]): 53.47% | PROTEASE % INHIB. (HIV-1 protease; [3]): 78.32% | PROTEASE % INHIB. (HIV-1 protease; [4]): 89.84% | PROTEASE % INHIB. (HIV-1 protease; [5]): 92.96% | PROTEASE % INHIB. (HIV-1 protease; [6]): 96.28% | PROTEASE % INHIB. (HIV-1 protease; [7]): 84.67% | Ki [1]: 1.96 nM

Cn1cnc(S(=O)(=O)Nc2cccc(C(C3=C(O)CC(CCc4ccccc4)(CCC(F)(F)F)OC3=O)C(C)(C)C)c2)c1 (single isomer, unassigned) [Example 270, N-[3-(R or S)-[1-[5,6-dihydro-4-hydroxy-2-oxo-6-(R or S)-(2-phenethyl)-6-(3,3,3-trifluoropropyl)-2H-pyran-3-yl]-2,2-dimethylpropyl]phenyl]-1-methyl-1H-imidazole-4-sulfonamide]
PROTEASE % INHIB. (HIV-1 protease; [2]): 75.26% | PROTEASE % INHIB. (HIV-1 protease; [3]): 85.62% | PROTEASE % INHIB. (HIV-1 protease; [4]): 93.45% | PROTEASE % INHIB. (HIV-1 protease; [5]): 96.62% | PROTEASE % INHIB. (HIV-1 protease; [6]): 94.57% | PROTEASE % INHIB. (HIV-1 protease; [7]): 82.67% | Ki [1]: 0.024 nM

CC(C)(C)C(C1=C(O)C2CCCCCCC2OC1=O)c1cccc(NS(=O)(=O)c2ccc(C#N)cn2)c1 (centres unmarked) [Example 373, 5-Cyano-N-[3-[2,2-dimethyl-1-(4a,5,6,7,8,9,10,10a-octahydro-4-hydroxy-2-oxo-2H-cycloocta[b]pyran-3-yl)propyl]phenyl]-2-pyridinesulfonamide]
PROTEASE % INHIB. (HIV-1 protease; [2]): 90.71% | PROTEASE % INHIB. (HIV-1 protease; [3]): 90.35% | PROTEASE % INHIB. (HIV-1 protease; [4]): 103.83% | PROTEASE % INHIB. (HIV-1 protease; [5]): 88.72% | PROTEASE % INHIB. (HIV-1 protease; [6]): 85.75% | PROTEASE % INHIB. (HIV-1 protease; [7]): 89.53% | Ki [1]: 0.2 nM

CCC[C@@]1(CCc2ccccc2)CC(O)=C([C@@H](c2cccc(NS(=O)(=O)c3ccc(C#N)cn3)c2)C(C)(C)C)C(=O)O1 (single isomer, unassigned) [Example 300, 5-Cyano-N-[3(R or S)-(1-[5,6-dihydro-4-hydroxy-2-oxo-6(R or S)-(2-phenylethyl)-6-propyl-2H-pyran-3-yl]-2,2-dimethylpropyl)-phenyl]-2-pyridinesulfonamide]
PROTEASE % INHIB. (HIV-1 protease): 90.61 and 99.05 and 111.45 and 109.19 and 105.56 and 104.91 | Ki [1]: 0.1 nM
